Earlier results as cited in US10105415B2, “Compositions comprising granulocyte-macrophage colony-stimulating factor for the treatment of inflammatory bowel disease” (priority 2014, dated 2018).

What was measured:
[1] = not given; remark: listed apart in the source
[2] = oral / local
[3] = given orally
[4] = test system: resistant bacterial strains; conditions: controlled clinical trials, oral or intravenous
[5] = test system: polymorphonuclear leukocytes
[6] = adverse effect frequency
[7] = test system: strains of organisms from the susceptible genera
[8] = test system: Pseudomonas aeruginosa; conditions: controlled clinical trials
[9] = test system: Crohn's disease; conditions: systemic (intravenous or subcutaneous), CD patients
[10] = given subcutaneously or infused intravenously for systemic effect

In the case of C[C@@H]1O[C@@H]1P(=O)(O)O [Fosfomycin disodium], the “pH of 5% solution” value is given as 9.0-10.5, the solubility in water [1] is given as “highly soluble in water” and the tolerability / irritation [2] is given as “locally irritant if un-neutralized”. For the same compound, the bioavailability [3] was “high bioavailability”.

For C[C@@H]1O[C@@H]1P(=O)(O)O [Fosfomycin calcium monohydrate], the “pH of 0.4% solution” value (0.4% solution) is given as 8.1-9.6, the solubility in water [1] is given as “sparingly soluble in water” and the tolerability / irritation [2] is given as “less irritating to the stomach”. The bioavailability [3] was no less than 12%.

For C[C@@H]1O[C@@H]1P(=O)(O)O [Fosfomycin, [(2R,3S)-3-methyloxiran-2-yl]phosphonic acid], the “appearance of resistant bacterial strains, overall” value [4] is given as 3.0%, the “concentration in polymorphonuclear leukocytes relative to extracellular fluid” value [5] is given as “twice” and the eosinophilia [6] is given as 0.2%. For the same compound, the “transient rashes (evidence of allergy)” value [6] was 0.3 % of cases, the “transiently raised liver enzymes” value [6] was 0.3 % of cases and the “synergistic effect, share of tested strains” value ([7]; early studies, various antibiotic combinations) was 70-100%. The synergy rates ([7]; subsequent more extensive studies) was 36-74% and the “appearance of resistant bacterial strains, maximum” value [8] was no more than 15%.

For “GM-CSF: Monomeric glycoprotein of 127 amino-acid residues (SEQ ID NO: 2), colony-stimulating factor; recombinant forms regramostim, sargramostim, molgramostim”, the primary therapeutic endpoints [9] is given as “failed to achieve their primary therapeutic endpoints” and the plasma concentrations achieved [10] is given as greater than 1 ng/mL.

For C[C@@H]1O[C@@H]1P(=O)(O)O.NC(CO)(CO)CO [Fosfomycin trometamol], the “pH of 5% solution” value is given as 3.5-5.5, the solubility in water [1] is given as “highly soluble in water” and the tolerability / irritation [2] is given as “well tolerated”. For the same compound, the bioavailability [3] was “about 40%”.
